Legend:
Assay in all cases: relative viability (nuclei count vs DMSO), 5 days (fraction); higher = more cells survive
[1] = compound: CC1=CC(=NN1)NC2=CC(=NC(=N2)/C=C/C3=CC=CC=C3)N4CCN(CC4)C + CC(=O)c1c(C)c2cnc(Nc3ccc(N4CCNCC4)cn3)nc2n(C2CCCC2)c1=O [Palbociclib] (partner 0.5 µM)
In short: (§1)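 Relative viability equals treated-well nuclei counts divided by vehicle-well nuclei counts. Counts came from 4× images of lung cancer cell lines grown in 1536-well plates for 5 days after pin-tool dosing on the day after seeding. Dosing used one drug alone or a fixed anchor-drug dose plus five library-drug doses (not always all listed) in √10 steps, and values are medians of duplicate plates.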

Obatoclax + Olaparib = compound: COC1=CC(c2cc3ccccc3[nH]2)=N/C1=C\c1[nH]c(C)cc1C [Obatoclax] + O=C(c1cc(Cc2n[nH]c(=O)c3ccccc23)ccc1F)N1CCN(C(=O)C2CC2)CC1 [Olaparib] (partner 8 µM)
In short: as §1

Obatoclax + Phenformin = compound: COC1=CC(c2cc3ccccc3[nH]2)=N/C1=C\c1[nH]c(C)cc1C [Obatoclax] + N=C(N)NC(=N)NCCc1ccccc1 [Phenformin] (partner 250 µM)
In short: as §1

[2] = compound: CC1=CC(=NN1)NC2=CC(=NC(=N2)/C=C/C3=CC=CC=C3)N4CCN(CC4)C + CS(=O)(=O)CCNCc1ccc(-c2ccc3ncnc(Nc4ccc(OCc5cccc(F)c5)c(Cl)c4)c3c2)o1 [Lapatinib] (partner 2 µM)
In short: as §1

Cell Line	relative viability ([1]; first compound 0.08 µM)	relative viability ([1]; first compound 0.253 µM)	relative viability ([1]; first compound 0.8 µM)	relative viability ([1]; first compound 2.53 µM)	relative viability ([1]; first compound 8 µM)	relative viability (Obatoclax + Olaparib; first compound 0.01 µM)	relative viability (Obatoclax + Olaparib; first compound 0.03162 µM)	relative viability (Obatoclax + Olaparib; first compound 0.1 µM)	relative viability (Obatoclax + Olaparib; first compound 0.3162 µM)	relative viability (Obatoclax + Olaparib; first compound 1 µM)	relative viability (Obatoclax + Phenformin; first compound 0.01 µM)	relative viability (Obatoclax + Phenformin; first compound 0.03162 µM)	relative viability (Obatoclax + Phenformin; first compound 0.1 µM)	relative viability (Obatoclax + Phenformin; first compound 0.3162 µM)	relative viability (Obatoclax + Phenformin; first compound 1 µM)	relative viability ([2]; first compound 0.08 µM)	relative viability ([2]; first compound 0.253 µM)	relative viability ([2]; first compound 0.8 µM)	relative viability ([2]; first compound 2.53 µM)	relative viability ([2]; first compound 8 µM)
HCC-44	0.984	0.946	0.952	1.01	0.644	0.965	0.988	0.966	0.969	0.94	0.268	0.185	0.0802	0.14	0.111	1.02	1.07	0.955	0.85	0.101
HCC-78	0.469	0.439	0.546	0.398	0.338	0.836	0.952	1.26	0.668	0.855	0.8	0.634	0.868	0.642	0.67	0.673	1.04	0.87	0.68	1.27
HCC-366	0.414	0.368	0.344	0.0349	0.019	0.322	0.366	0.316	0.334	0.272	0.581	0.565	0.657	0.628	0.478	0.928	1.13	0.996	0.0251	0.0162
HCC-827	0.445	0.514	0.505	0.501	0.231	0.594	0.542	0.628	0.581	0.221	0.424	0.409	0.46	0.373	0.435	0.201	0.168	0.212	0.146	0.124
HOP-62	0.41	0.458	0.492	0.371	0.154	0.292	0.352	–	0.434	0.405	0.693	0.699	0.604	0.662	0.404	1.06	0.973	0.956	0.558	0.307
IA-LM	–	–	–	–	–	0.832	0.881	0.775	0.782	0.114	–	–	–	–	–	–	0.885	0.961	0.638	0.113
LC-2-ad	0.552	0.488	0.413	0.298	0.18	0.693	0.676	0.732	0.723	0.648	0.637	0.49	0.541	0.585	0.499	0.701	0.928	0.899	0.0949	0.0594
LCLC-97TM1	0.246	0.201	0.201	0.168	0.0556	0.273	0.38	0.389	0.293	0.348	0.417	0.408	0.458	0.485	0.421	1.29	1.06	0.922	0.158	0.0857
LCLC-103H	0.44	0.438	0.491	0.422	0.349	0.704	0.745	0.672	0.745	0.706	0.317	0.28	0.327	0.321	0.34	–	–	–	–	–
LK-2	0.61	0.691	0.547	0.33	0.0792	0.806	0.81	0.768	0.695	0.762	0.547	0.485	0.483	0.464	0.346	0.885	0.852	0.852	0.604	0.181
LOU-NH91	0.55	0.516	0.5	0.56	0.407	0.921	0.919	0.834	0.857	0.398	0.716	0.657	0.499	0.403	0.432	0.669	0.785	0.698	0.567	0.333
NCI-H441	0.169	0.214	0.203	0.115	0.103	0.63	0.6	0.527	0.359	0.288	0.664	0.79	0.771	0.614	0.475	–	–	–	–	–
NCI-H522	1.04	1.19	1.31	0.726	0.357	0.783	0.681	0.694	0.621	0.56	0.614	0.62	0.633	0.688	0.603	–	–	–	–	–
NCI-H596	–	–	–	–	–	0.671	0.675	0.552	0.492	0.458	0.768	0.764	0.741	0.711	0.583	0.976	1.09	0.912	0.505	0.286
NCI-H1299	–	–	–	–	–	0.946	0.92	0.976	0.969	0.331	–	–	–	–	–	0.955	0.977	0.982	0.685	0.257
NCI-H1563	–	–	–	–	–	–	–	–	–	–	0.621	0.696	0.629	0.683	0.586	0.905	0.784	0.91	0.667	0.403
NCI-H1623	–	–	–	–	–	–	–	–	–	–	0.626	0.578	0.515	0.598	0.568	–	–	–	–	–
NCI-H1648	0.262	0.25	0.238	0.256	0.271	1.07	0.793	0.91	0.624	0.576	–	–	–	–	–	–	–	–	–	–
NCI-H1703	–	–	–	–	–	0.18	0.403	0.393	0.524	0.246	–	–	–	–	–	1.11	0.975	0.373	0.177	0.167
NCI-H2342	0.531	0.517	0.532	0.527	0.492	0.419	0.409	0.448	0.515	0.473	0.744	0.573	0.737	0.48	0.584	–	–	–	–	–
SW 900	0.514	0.542	0.497	0.284	0.12	0.893	0.803	0.924	0.703	0.606	0.556	0.584	0.726	0.493	0.325	–	–	–	–	–

— the supplement of paper PMC10307832
